Key:
Hepatoma AH 130 = assay: in vivo; parameters: species or system SPF Wistar rats; settings: additional compounds, result in words
Text: (§1) The high activity against tumours is further illustrated in these experiments by comparisons with known antitumour agents used in the therapy. The therapeutic indexes (T.I.), i.e. the ratios LD50/ED50, are in all comparisons much more favourable with the compounds of the present invention.
(§2) LD50 is the dose that caused a 50 percent lethality of the animals, ED50 is the dose that caused a 50 percent reduction of tumour size.
(§3) The experimental design and the interpretation of the results have been in accordance with the standards set by the CCNSC (Cancer Chemotherapy Reports, January 1959 and December 1962), and by the DR&D (Cancer Chemotherapy Reports, September 1972, Vol. 3, No. 2).
(§4) The way of administration is by the intraperitoneal route (i.p.) in each case.
Experimental animals: SPF Wistar rats.
Tumour implant: 5 × 10^6 tumour cells i.p.
(§5) Therapy: One injection i.p. on the day following implantation.
(§6) Termination: The animals are killed on the 8th day.
(§7) Evaluation: Weights of tumours of test animals compared with those of control animals.

[1] = test system: Ehrlich ascites tumour, ELD hyperdiploid (46 chromosomes); assay: Ehrlich ascites tumour test (LD50, ED50, therapeutic index); format: in vivo, SPF NMRI mice; settings: additional compounds, result in words
Text: as §1, §2, §3, §4
Ehrlich ascites tumour, ELD hyperdiploid (46 chromosomes)
Experimental animals: SPF NMRI mice.
Tumour implant: 2 × 10^6 tumour cells i.p.
as §5, §6, §7

| SMILES | anti-tumor activity (Hepatoma AH 130) | anti-tumor activity [1] |
| --- | --- | --- |
| C[C@]12CC[C@@H](OC(=O)N(CCCl)N=O)C[C@@H]1CC[C@@H]1[C@@H]2CC[C@]2(C)[C@@H](OP(=O)(O)O)CC[C@@H]12 [androstanediol-3α-N-(2-chloroethyl)-N-nitroso carbamate-17β-dihydrogen phosphate] | exhibit anti-tumor activity | exhibit anti-tumor activity |
| C[C@]12CC[C@@H](OC(=O)N(CCCl)N=O)C[C@H]1CC[C@@H]1[C@@H]2CC[C@]2(C)C(=O)CC[C@@H]12 [etiocholanolone-3α-N-(2-chloroethyl)-N-nitroso carbamate] | exhibit anti-tumor activity | exhibit anti-tumor activity |
| C[C@]12CC[C@@H]3c4ccc(OC5CCCC5)cc4CC[C@H]3[C@@H]1CC[C@@H]2OC(=O)N(CCCl)N=O [estradiol-17β-N-(2-chloroethyl)-N-nitroso carbamate-3-cyclopentyl ether] | exhibit anti-tumor activity | exhibit anti-tumor activity |
| C[C@]12CC[C@H](OC(=O)N(CCF)N=O)CC1=CC[C@@H]1[C@@H]2CC[C@]2(C)C(=O)CC[C@@H]12 [dehydroepiandrosterone-3β-N-(2-fluoroethyl)-N-nitroso carbamate] | exhibit anti-tumor activity | exhibit anti-tumor activity |
| C[C@]12CC[C@@H]3c4ccc(OC(=O)N(CCCl)N=O)cc4CC[C@H]3[C@@H]1CC[C@@H]2OP(=O)(O)O [estradiol-3-N-(2-chloroethyl)-N-nitroso carbamate-17β-dihydrogen phosphate] | exhibit anti-tumor activity | exhibit anti-tumor activity |
| C#C[C@]1(OC(=O)N(CCCl)N=O)CC[C@H]2[C@@H]3CCc4cc(OC(C)=O)ccc4[C@H]3CC[C@@]21C [17α-ethynylestradiol-3-acetate-17β-N-(2-chloroethyl)-N-nitroso carbamate] | exhibit anti-tumor activity | exhibit anti-tumor activity |
| C[C@]12CC[C@@H]3c4ccc(OC(=O)N(CCCl)N=O)cc4CC[C@H]3[C@@H]1CC[C@@H]2OS(=O)(=O)O [estradiol-3-N-(2-chloroethyl)-N-nitroso carbamate-17β-sodium sulphate] | exhibit anti-tumor activity | exhibit anti-tumor activity |
| C[C@]12CC[C@H]3[C@@H](CCC4=CC(=O)CC[C@@H]43)[C@@H]1CC[C@@H]2OC(=O)N(C(=O)N(CCCl)N=O)C1CCCCC1 [19-nortestosterone-17β-/N^2-cyclohexyl-N^4-(2-chloroethyl)-N^4-nitroso allophanate/] | exhibit anti-tumor activity | exhibit anti-tumor activity |
| C[C@]12C=CC(=O)C=C1CC[C@@H]1[C@@H]2C(=O)C[C@@]2(C)[C@H]1CC[C@]2(O)C(=O)COC(=O)N(CCCl)N=O [prednisone-21-N-(2-chloroethyl)-N-nitroso carbamate] | exhibit anti-tumor activity | exhibit anti-tumor activity |
| CCCOc1ccc(CCC(=O)O[C@H]2CC[C@H]3[C@@H]4CCc5cc(OC(=O)N(CCCl)N=O)ccc5[C@H]4CC[C@]23C)cc1 [estradiol-3-N-(2-chloroethyl)-N-nitroso carbamate-17β-(p-propoxyphenyl-propionate)] | exhibit anti-tumor activity | exhibit anti-tumor activity |
| CC(=O)Oc1ccc2c(c1)CC[C@@H]1[C@@H]2CC[C@@]2(C)[C@H]1C[C@@H](OC(C)=O)[C@@H]2OC(=O)N(C(=O)N(CCCl)N=O)C1CCCCC1 [estriol-3,16α-diacetate-17β-/N^2-cyclohexyl-N^4-(2-chloroethyl)-N^4-nitroso allophanate/] | exhibit anti-tumor activity | exhibit anti-tumor activity |
| C[C@]12CC[C@H](OC(=O)N(CCCl)C(=O)N(CCCl)N=O)CC1=CC[C@@H]1[C@@H]2CC[C@]2(C)C(=O)CC[C@@H]12 [dehydroepiandrosterone-3β-/N^2,N^4-bis (2-chloroethyl)-N^4-nitroso allophanate/] | exhibit anti-tumor activity | exhibit anti-tumor activity |
| CC(=O)[C@@]1(OC(=O)N(CCCl)N=O)CC[C@H]2[C@@H]3CCC4=CC(=O)CC[C@]4(C)[C@H]3CC[C@@]21C [17α-hydroxy-progesterone,17α-N-(2-chloroethyl)-N-nitroso carbamate] | exhibit anti-tumor activity | exhibit anti-tumor activity |
| C[C@]12CC[C@H](OC(=O)N(C(=O)N(CCCl)N=O)c3ccccc3)CC1=CC[C@@H]1[C@@H]2CC[C@]2(C)C(=O)CC[C@@H]12 [dehydroepiandrosterone-3β-/N^2-phenyl-N^4-(2-chloroethyl)-N^4-nitroso allophanate/] | exhibit anti-tumor activity | exhibit anti-tumor activity |
| C#C[C@]1(OC(=O)N(CCCl)N=O)CC[C@H]2[C@@H]3CCC4=C(CCC(=O)C4)[C@H]3CC[C@@]21C [norethynodrel-17β-N-(2-chloroethyl)-N-nitroso carbamate] | exhibit anti-tumor activity | exhibit anti-tumor activity |
| CN(C(=O)O[C@H]1CC[C@@]2(C)C(=CC[C@@H]3[C@@H]2CC[C@]2(C)C(=O)CC[C@@H]32)C1)C(=O)N(CCCl)N=O [dehydroepiandrosterone-3β-/N^2-methyl-N^4-(2-chloroethyl)-N^4-nitroso allophanate/] | exhibit anti-tumor activity | exhibit anti-tumor activity |
| CC(=O)O[C@@H]1C[C@H]2[C@@H]3CCc4cc(OC(=O)N(CCCl)N=O)ccc4[C@H]3CC[C@]2(C)[C@H]1OC(C)=O [estriol-16α,17β-diacetate-3-N-(2-chloroethyl)-N-nitroso carbamate] | exhibit anti-tumor activity | exhibit anti-tumor activity |
| C#C[C@]1(OC(=O)N(CCCl)N=O)CC[C@H]2[C@@H]3CCC4=CC(=O)CC[C@@H]4[C@H]3CC[C@@]21C [17α-ethynyl-19-nortestosterone-17β-N-(2-chloroethyl)-N-nitroso carbamate] | exhibit anti-tumor activity | exhibit anti-tumor activity |
| C#C[C@]1(OC(C)=O)CC[C@H]2[C@@H]3CCc4cc(OC(=O)N(CCCl)N=O)ccc4[C@H]3CC[C@@]21C [17α-ethynylestradiol-17β-acetate-3-N-(2-chloroethyl)-N-nitroso carbamate] | exhibit anti-tumor activity | exhibit anti-tumor activity |
| CCCCN(C(=O)O[C@H]1CC[C@@]2(C)C(=CC[C@@H]3[C@@H]2CC[C@]2(C)C(=O)CC[C@@H]32)C1)C(=O)N(CCCl)N=O [dehydroepiandrosterone-3β-/N^2-n-butyl-N^4-(2-chloroethyl)-N^4-nitroso allophanate/] | exhibit anti-tumor activity | exhibit anti-tumor activity |
| CC1CCC(N(C(=O)O[C@H]2CC[C@@]3(C)C(=CC[C@@H]4[C@@H]3CC[C@]3(C)C(=O)CC[C@@H]43)C2)C(=O)N(CCCl)N=O)CC1 (stereo partly drawn) [dehydroepiandrosterone-3β-/N^2-(4-methylcyclohexyl)-N^4-(2-chloroethyl)-N^4-nitroso allophanate/] | exhibit anti-tumor activity |  |

Reference: patent publication US3963707A, “Novel N-nitroso compounds, compositions containing such compounds, processes for their preparation and methods of treatment therewith, and novel intermediates” (Aktiebolaget Leo, priority 1973, dated 1976)
